Laboratory results from the supplement of paper PMC9013687.

Columns and labels:
[1] = test system: Danio rerio embryo; experiment: EC10 Lack of SB; higher = less potent; conditions: exposure time: 4 dpf
Experimental: (§1)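 Zebrafish embryos (UFZ-OBI strain) were exposed from 2 hpf for 48 h (2 dpf) or 96 h (4 dpf) at 28 °C; spontaneous tail coiling was scored at 25 hpf. Morphological features from automated image analysis (FishInspector), heart rate and locomotor response were fitted with drc models. Quantal endpoints were dichotomised at 2.5 SD from controls and fitted with a log-logistic model; heart rate, pigmentation and STC were normalised to the replicate control mean. Betamethasone was tested as betamethasone dipropionate, diflorasone as diflorasone diacetate.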

[2] = test system: Danio rerio embryo; experiment: EC20 Bladder size_Decrease; higher = less potent; conditions: exposure time: 4 dpf
Experimental: as §1

[3] = test system: Danio rerio embryo; experiment: EC20 Eye size_Decrease; higher = less potent; conditions: exposure time: 2 dpf
Experimental: as §1

[4] = test system: Danio rerio embryo; experiment: EC10 Yolk sac size_Increase; higher = less potent
Experimental: as §1

[5] = test system: Danio rerio embryo; experiment: EC20 STC decrease; higher = less potent; conditions: exposure time: 25 h
Experimental: as §1

[6] = test system: Danio rerio embryo
Experimental: as §1

[7] = test system: Danio rerio embryo; experiment: EC10 Eye-jaw distance_Decrease; higher = less potent; conditions: exposure time: 4 dpf
Experimental: as §1

[8] = test system: Danio rerio embryo; experiment: EC20 Body length_Decrease; higher = less potent
Experimental: as §1

[9] = test system: Danio rerio embryo; experiment: EC50 Bladder size_Decrease; conditions: exposure time: 4 dpf
Experimental: as §1

[10] = test system: Danio rerio embryo; experiment: EC20 Any effect; higher = less potent
Experimental: as §1

[11] = test system: Danio rerio embryo; experiment: EC20 Yolk sac size_Increase; higher = less potent
Experimental: as §1

[12] = test system: Danio rerio embryo; experiment: EC50 Curvature_Increase
Experimental: as §1

[13] = test system: Danio rerio embryo; experiment: EC50 Body length_Decrease
Experimental: as §1

[14] = test system: Danio rerio embryo; experiment: EC20 Curvature_Increase; higher = less potent
Experimental: as §1

[15] = test system: Danio rerio embryo; experiment: EC10 Head trunk angle_Decrease; higher = less potent; conditions: exposure time: 2 dpf
Experimental: as §1

[16] = test system: Danio rerio embryo; experiment: EC50 Yolk sac size_Increase
Experimental: as §1

[17] = test system: Danio rerio embryo; experiment: EC20 Head trunk angle_Decrease; higher = less potent; conditions: exposure time: 2 dpf
Experimental: as §1

[18] = test system: Danio rerio embryo; experiment: EC20 LMR dark; higher = less potent; conditions: exposure time: 4 dpf
Experimental: as §1

[19] = test system: Danio rerio embryo; experiment: EC20 LMR ligth decrease; higher = less potent; conditions: exposure time: 4 dpf
Experimental: as §1

CC1=C(/C=C/C(C)=C/C=C/C(C)=C/C(=O)O)C(C)(C)CCC1 [all-trans retinoic acid]
EC10 Lack of SB [1]: 12 nM | EC20 Bladder size Decrease [2]: 12 nM | EC20 Eye size Decrease [3]: 36 nM | EC10 Yolk sac size Increase ([4]; exposure time: 2 dpf): 13 nM | EC10 Yolk sac size Increase ([4]; exposure time: 4 dpf): 34 nM | EC20 STC decrease [5]: 5.6 nM | EC50 Any effect ([6]; exposure time: 2 dpf): 9 nM | EC50 Any effect ([6]; exposure time: 4 dpf): 11 nM | EC50 LMR ligth decrease ([6]; exposure time: 4 dpf): 27.4 nM | EC50 STC decrease ([6]; exposure time: 25 h): 76 nM | EC10 Eye-jaw distance Decrease [7]: 25 nM | EC20 Body length Decrease ([8]; exposure time: 2 dpf): 33 nM | EC20 Body length Decrease ([8]; exposure time: 4 dpf): 30 nM | EC50 Bladder size Decrease [9]: 17 nM | EC20 Any effect ([10]; exposure time: 2 dpf): 8 nM | EC20 Any effect ([10]; exposure time: 4 dpf): 7 nM | EC20 Yolk sac size Increase ([11]; exposure time: 2 dpf): 21 nM | EC20 Yolk sac size Increase ([11]; exposure time: 4 dpf): 36 nM | EC50 Curvature Increase ([12]; exposure time: 2 dpf): 13 nM | EC50 Curvature Increase ([12]; exposure time: 4 dpf): 10 nM | EC50 Body length Decrease ([13]; exposure time: 2 dpf): 36 nM | EC50 Body length Decrease ([13]; exposure time: 4 dpf): 48 nM | EC20 Curvature Increase ([14]; exposure time: 2 dpf): 9 nM | EC20 Curvature Increase ([14]; exposure time: 4 dpf): 7 nM | EC10 Head trunk angle Decrease [15]: 2 nM | EC50 Yolk sac size Increase ([16]; exposure time: 2 dpf): 45 nM | EC50 Yolk sac size Increase ([16]; exposure time: 4 dpf): 39 nM | EC20 Head trunk angle Decrease [17]: 4 nM | EC20 LMR dark [18]: 22 nM | EC20 LMR ligth decrease [19]: 4.75 nM
